According to US20250108048A1, “STING AGONIST COMPOUNDS AND CONJUGATES” (SUTRO BIOPHARMA, INC., priority 2023, published 2025):
Like-named read-outs stand apart in the source and are kept apart here.

Columns and labels:
Assay type in all cases: cell-based, human
[1] = system: NCI-H441; assay: NCI-H441/PBMC co-culture: cancer cell count; conditions: Table 9
Experimental: (§1) For the co-culture assay, cancer cells were plated on transparent flat bottom polystyrene plates and allowed to attach overnight. On the next day, serially diluted (1:4) test articles were formulated at 3× starting concentration in complete RPMI media and added onto each well. Human PBMCs were thawed and resuspended in RPMI supplemented with 10% heat-inactivated fetal bovine serum from Hyclone, 1% Penicillin/Streptomycin and 2 mmol/L-glutamax. PBMCs were then added into the same well at a final ratio of PBMCs:cancer cells =30:1. Plates were incubated for 2 or 3 days at 37° C. with 5% CO2 in a cell culture incubator.
(§2) On the day of sample collection, cell culture supernatants were collected and stored at −80° C. until cytokine release analyses were performed. […] After incubation on ice for 1 hour, cells were washed with FACS buffer and fixed with 50 ul/well of 2% PFA (paraformaldehyde) for 20 minutes. Cells were then washed with FACS buffer again and read on Cytek flow cytometer. FACS data analysis was done by Flowjo software to identifymonocytes, B cells, CD4+ T cells, CD8+ T cells, NK cells and Dendritic cells and their activation status. Data from Flowjo was exported and plotted using non-linear regression analysis, log (agonist/inhibitor) vs. response, variable slope, 4-parameter fit equation in GraphPad Prism. […]

[2] = system: TROP2 positive NCI-H292 Cells; assay: Cytokine release from cancer cells (MSD); conditions: 120 hours; for EC50: Homo sapiens
Experimental: The cell supernatant was collected and IP-10 and IL-6 released in the cell culture medium was measured using Streptavidin single spot 96 well plates, compatible human antibody pairs, and calibrating solutions commercially available from MesoScale Discovery. Raw data generated by the Meso Scale Discovery (MSD®) SQ120 plate reader was imported into MSD Discovery Workbench software. Unknown sample values were interpolated from standard curves by the software and imported into Graphpad Prism. Each cytokine level was fitted with non-linear regression analysis, using log (agonist) vs. response, variable slope, 4-parameter fit equation in GraphPad Prism.

[3] = system: NCI-H292 cells; assay: Immunogenic cell death markers (HMGB1 release, surface calreticulin); conditions: 48 hours; for EC50: Homo sapiens
Experimental: Immunogenic cell death elicited by the TROP2 ADC, iSAC, and exatecan were measured by cell surface translocate of calreticulin and release of HMGB1 in the cell culture supernatant. Briefly, TROP2 positive cell line NCI-H292 were seeded into a 96-well flat bottom plate 4 hours prior to the initialization of the assay. Test articles were formulated at a 2× starting concentration in cell culture medium, and samples were serial diluted (1:3) under sterile conditions and added onto the cells in duplicates. After incubation at 37° C. in a CO2 incubator for 48 hours, the cell supernatant was collected for measuring HMGB1 and the adherent cells were collected for calreticulin expression on the cell surface.
HMGB1 released in the supernatant was assessed via sandwich ELISA using mouse anti-human HMGB1 clone 2F6 (Sigma-Aldrich) as the capture, polyclonal rabbit anti-human HMGB1 (Abcam) as secondary, and polyclonal goat anti-rabbit IgG HRP as the detection antibody. The HMGB1 concentrations in the cell culture medium were calculated based a standard curve built on commercially available recombinant human HMGB1 (R&D Systems).
NCI-H292 cells were detached using Accutase (Innovative Cell Technologies) and viability was accessed using a 1:500 dilution of Zombie NIR viability dye. […] Surface calreticulin measures on the live cells were gathered using an Attune NXT Flow Cytometer (ThermoFisher Scientific) to obtain median fluorescence intensity values. All data were fitted with non-linear regression analysis, using log(agonist) vs. response, variable slope, 4 parameter fit equation using GraphPad Prism.

[4] = system: TROP2 negative NCI-H460 cells; assay: NCI-H460/PBMC co-culture: cancer cell count; conditions: Table 10
Experimental: as §1, §2

Q: For `CC[C@@]1(O)C(=O)OCc2c1cc1n(c2=O)Cc2c-1nc1cc(F)c(C)c3c1c2[C@@H](N)CC3` [Exatecan, reference compound], which IC50 ([1]; Homo sapiens) is on record?
A: The IC50 was 0.44 nM.

Q: What about the “Cancer Cell Count Span (Cell Count)” value [1] of the same compound?
A: Its value is 5,749 Cell Count.

Q: And the “IL-6 Release Span” value [2]?
A: The value was 1410 pg/mL.

Q: What about the “IP-10 Release Span” value [2] of the same compound?
A: The value was 203 pg/mL.

Q: And the EC50 ([2]; read-out: IL-6 Release EC50)?
A: Its EC50 is 14.7 nM.

Q: And the EC50 ([2]; read-out: IP-10 Release EC50)?
A: The EC50 was 0.87 nM.

Q: And the “Calreticulin Span (MFI)” value [3]?
A: Its value is 783 MFI.

Q: What about the “HMGB-1 Release Span” value [3] of the same compound?
A: The value was 55 ng/mL.

Q: And the EC50 ([3]; sandwich ELISA, read-out: HMGB-1 Release EC50)?
A: The EC50 was 2.08 nM.

Q: What about the EC50 ([3]; surface calreticulin on live cells, read-out: Calreticulin EC50) of the same compound?
A: Its EC50 is 0.19 nM.

Q: And the IC50 ([4]; Homo sapiens, NCI-H460/PBMC co-culture (TROP2 negative))?
A: Its IC50 is 0.38 nM.

Q: And the “Cancer Cell Count Span (Cell Count)” value ([4]; NCI-H460/PBMC co-culture)?
A: The value was 23,530 Cell Count.
